Drawing on US12583861B2, “Derivatives of imidazo[4,5-d]pyridazine, their preparation and their therapeutic application” (SANOFI, priority 2021, dated 2026), this text covers EC50 for 22 compounds.

Common to all, as to type: cell-based
One experiment deals with TNF-α. Briefly: TNF-α cytokine activation in human PBMC (MSD assay). Here is the method: (§1) The other below tests involving measuring the in vitro activity of some compounds of the disclosure on cytokines IFN-α2a, IL-6, IL29 and TNF-α were carried out using human PBMC (PBMCs).
(§2) The activity described below, with respect to TLR7, TLR8, IFN-α2a, IL-6, IL29 and TNF-α, is given by the half maximal effective concentration (EC50), which corresponds to the concentration required to obtain a 50% of the activation. The lower the EC50, the less the concentration of the compound is required to produce 50% of maximum activation and the higher the potency.
(§3) In Vitro Assay to Determine IFN-α2a, IL-6, IL29 and TNF-α Cytokine Activation:
(§4) Peripheral blood mononuclear cells were isolated by Ficoll density gradient centrifugation from peripheral blood samples obtained from healthy donors (EFS). Isolated PBMCs are washed twice with PBS and resuspended in RPMI-1640 medium supplement with 10% fetal bovine serum (FBS) at 5.10^5 cells/well in a 96-well plate. The cells were then incubated with the compounds to test at various doses (20 μM to 4.8.10-6 μM final) for 24 h at 37° C., 5% CO2. After 24 h treatment, the plates are centrifuged and the supernatant were collected and assayed for cytokines IFN-α2a, IL-6, IL29 and TNF-α using the Meso Scale Discovery (MSD) assay platform according to the manufacturer's instructions. Briefly, 25 μL of cell culture supernatants were incubated for 1 h at Room Temperature (RT) in custom Multi-Spot 96-well plates prior coated with capture antibodies. After washing, SULFO-TAG® labeled detection antibodies were added to each of the wells and incubated for 1 h RT before adding a read buffer.

The next experiment addresses T1, human TLR8 (Homo sapiens, UniProt Q9NR97).
T1 construct: host or cells: HEK293 (HEK-Blue hTLR8)
T1 sequence (Q9NR97 27-1041): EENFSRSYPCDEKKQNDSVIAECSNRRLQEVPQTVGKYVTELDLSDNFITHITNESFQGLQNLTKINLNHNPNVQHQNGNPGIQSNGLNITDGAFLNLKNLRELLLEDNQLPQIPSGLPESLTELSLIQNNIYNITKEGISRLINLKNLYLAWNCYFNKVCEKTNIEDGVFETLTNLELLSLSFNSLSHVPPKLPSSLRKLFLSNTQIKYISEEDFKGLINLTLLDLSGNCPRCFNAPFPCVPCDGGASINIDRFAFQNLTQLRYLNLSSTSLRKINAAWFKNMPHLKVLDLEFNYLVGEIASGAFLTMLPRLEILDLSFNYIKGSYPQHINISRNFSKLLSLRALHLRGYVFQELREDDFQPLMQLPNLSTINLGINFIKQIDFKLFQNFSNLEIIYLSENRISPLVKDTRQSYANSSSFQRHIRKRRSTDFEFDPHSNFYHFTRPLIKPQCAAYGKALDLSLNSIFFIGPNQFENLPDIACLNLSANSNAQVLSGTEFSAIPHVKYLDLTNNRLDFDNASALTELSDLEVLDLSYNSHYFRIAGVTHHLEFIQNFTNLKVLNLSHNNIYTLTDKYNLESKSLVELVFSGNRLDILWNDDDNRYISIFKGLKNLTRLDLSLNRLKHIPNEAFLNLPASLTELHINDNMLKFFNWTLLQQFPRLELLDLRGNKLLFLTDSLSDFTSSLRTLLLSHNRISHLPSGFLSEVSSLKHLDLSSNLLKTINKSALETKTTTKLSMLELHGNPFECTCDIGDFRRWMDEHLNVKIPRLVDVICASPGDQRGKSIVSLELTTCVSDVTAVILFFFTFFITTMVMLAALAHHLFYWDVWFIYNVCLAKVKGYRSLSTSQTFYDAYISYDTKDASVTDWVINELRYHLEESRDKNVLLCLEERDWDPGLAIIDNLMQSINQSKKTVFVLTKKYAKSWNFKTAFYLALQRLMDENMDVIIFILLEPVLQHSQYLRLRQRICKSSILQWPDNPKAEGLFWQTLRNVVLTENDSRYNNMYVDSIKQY
Briefly: HEK-Blue hTLR8 reporter cell assay (SEAP, NF-kB/AP-1) for stimulation of human TLR8. The settings on record: HEK-Blue hTLR8 cells, 24 h incubation, SEAP readout; read-out: TLR8_EC50. Put shortly: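 Stimulation is quantified as secreted alkaline phosphatase in supernatant using QUANTI-Blue™ substrate. Reporter HEK293 line co-transfected with hTLR8 and SEAP under an IFN-β minimal promoter with five NF-κB/AP-1 sites; 3.10E4 cells/well, 18 to 24 h pre-culture at 37° C. before compounds.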

The test system of the next experiment is IFN-α2a. Briefly: IFN-α2a cytokine activation in human PBMC (MSD assay). Here is the method:
as §1, §2, §3, §4

Molecules are shown by their SMILES.

For the compound `CCCCc1nc2c(N)nnc(C(C)C)c2n1Cc1ccc(OC)cc1` [Compound 18, 2-butyl-7-isopropyl-1-(4-methoxybenzyl)-1H-imidazo[4,5-d]pyridazin-4-amine], the EC50 with TNF-α (Homo sapiens, PBMC, 24 h) is 2810 nM; on human TLR8, greater than 20000 nM; in the experiment with IFN-α2a (Homo sapiens, PBMC, 24 h), 71 nM.
On to `CCCCc1nc2c(N)nnc(N3CCC(c4ccccc4)C3)c2n1C` (stereo not drawn) [Compound 89, 2-butyl-1-methyl-7-(3-phenylpyrrolidin-1-yl)-1H-imidazo[4,5-d]pyridazin-4-amine], for which the EC50 with TNF-α (Homo sapiens, PBMC, 24 h) is 2350 nM; on human TLR8, 7560 nM; in the experiment on IFN-α2a (Homo sapiens, PBMC, 24 h) it was 213 nM.
The corresponding values for `C=C(C)c1nnc(N)c2nc(CCCC)n(Cc3ccc(OC)cc3)c12` [Compound 17, 2-butyl-1-(4-methoxybenzyl)-7-(prop-1-en-2-yl)-1H-imidazo[4,5-d]pyridazin-4-amine] are greater than 20000 nM, greater than 20000 nM and 17 nM.
As for `CCCCc1nc2c(N)nnc(OC(C)C)c2n1C[C@H]1CCC[C@@H](N)C1` (racemic) [Compound 23, 1-(((1S,3R)-3-aminocyclohexyl)methyl)-2-butyl-7-isopropoxy-1H-imidazo[4,5-d]pyridazin-4-amine (and enantiomer)], the EC50 was 5480 nM in the experiment with TNF-α (Homo sapiens, PBMC, 24 h); 14600 nM on human TLR8; 3 nM with IFN-α2a (Homo sapiens, PBMC, 24 h).
Turning to `CCCCc1nc2c(N)nnc(SC(C)C)c2n1Cc1ccc(OC)cc1` [Compound 3, 2-butyl-7-(isopropylthio)-1-(4-methoxybenzyl)-1H-imidazo[4,5-d]pyridazin-4-amine], the EC50 with TNF-α (Homo sapiens, PBMC, 24 h) was 2820 nM; on human TLR8, greater than 20000 nM; with IFN-α2a (Homo sapiens, PBMC, 24 h), 62 nM.
Regarding `CCCCc1nc2c(N)nnc(OC(C)C)c2n1Cc1ccc(CO)cc1` [Compound 35, (4-((4-amino-2-butyl-7-isopropoxy-1H-imidazo[4,5-d]pyridazin-1-yl)methyl)phenyl)methanol], the EC50 is 343 nM in the experiment with TNF-α (Homo sapiens, PBMC, 24 h); greater than 20000 nM at human TLR8; 21 nM with IFN-α2a (Homo sapiens, PBMC, 24 h).
Regarding `CCCCc1nc2c(N)nnc(OC3CCCC3)c2n1Cc1ccc(OC)cc1` [Compound 9, 2-butyl-7-(cyclopentyloxy)-1-(4-methoxybenzyl)-1H-imidazo[4,5-d]pyridazin-4-amine], the EC50 in the experiment with TNF-α (Homo sapiens, PBMC, 24 h) was 380 nM; on human TLR8 it was greater than 20000 nM; in the experiment with IFN-α2a (Homo sapiens, PBMC, 24 h), 16 nM.
For `C=CCOc1nnc(N)c2nc(CCCC)n(Cc3ccc(OC)cc3)c12` [Compound 6, 7-(allyloxy)-2-butyl-1-(4-methoxybenzyl)-1H-imidazo[4,5-d]pyridazin-4-amine], the EC50 with TNF-α (Homo sapiens, PBMC, 24 h) was 641 nM; on human TLR8 it was greater than 20000 nM; in the experiment with IFN-α2a (Homo sapiens, PBMC, 24 h), 112 nM.
With `CCCCc1nc2c(N)nnc(N(C)C)c2n1Cc1ccc(OC)cc1` [Compound 71, 2-butyl-1-(4-methoxybenzyl)-N7,N7-dimethyl-1H-imidazo[4,5-d]pyridazine-4,7-diamine], the EC50 is 1740 nM in the experiment with TNF-α (Homo sapiens, PBMC, 24 h); greater than 20000 nM on human TLR8; 63 nM in the experiment on IFN-α2a (Homo sapiens, PBMC, 24 h).
The like results for `CCCCc1nc2c(N)nnc(NCCOC)c2n1Cc1ccc(OC)cc1` [Compound 49, 2-butyl-1-(4-methoxybenzyl)-N7-(2-methoxyethyl)-1H-imidazo[4,5-d]pyridazine-4,7-diamine] were, in that order, 5490 nM, greater than 20000 nM and 75 nM.
The corresponding values for `CCCCc1nc2c(N)nnc(OC(C)C)c2n1Cc1ccc(C=O)cc1` [Compound 34, 4-((4-amino-2-butyl-7-isopropoxy-1H-imidazo[4,5-d]pyridazin-1-yl)methyl)benzaldehyde] are 655 nM, greater than 20000 nM and 36 nM.
Take `CCCCc1nc2c(N)nnc(OCC)c2n1Cc1ccc(OC)cc1` [Compound 48, 2-butyl-7-ethoxy-1-(4-methoxybenzyl)-1H-imidazo[4,5-d]pyridazin-4-amine]: the EC50 was 903 nM with TNF-α (Homo sapiens, PBMC, 24 h); greater than 20000 nM at human TLR8; 89 nM in the experiment with IFN-α2a (Homo sapiens, PBMC, 24 h).
Consider `CCCCc1nc2c(N)nnc(OC(C)C)c2n1Cc1cccc(CN)c1` [Compound 33, 1-(3-(aminomethyl)benzyl)-2-butyl-7-isopropoxy-1H-imidazo[4,5-d]pyridazin-4-amine 2,2,2-trifluoroacetate], for which the EC50 with TNF-α (Homo sapiens, PBMC, 24 h) stood at 1280 nM; at human TLR8, 336 nM; in the experiment with IFN-α2a (Homo sapiens, PBMC, 24 h), 3 nM.
As for `CCCCc1nc2c(N)nnc(OC(C)C)c2n1Cc1ccc(CN)cc1` [Compound 22, 1-(4-(aminomethyl)benzyl)-2-butyl-7-isopropoxy-1H-imidazo[4,5-d]pyridazin-4-amine 2,2,2-trifluoroacetate], the EC50 stood at 2790 nM in the experiment on TNF-α (24 h, 2,2,2-trifluoroacetate); 2610 nM on human TLR8; 0.1 nM in the experiment with IFN-α2a (24 h, 2,2,2-trifluoroacetate).
Turning to `CCCCc1nc2c(N)nnc(NC(C)C)c2n1Cc1ccc(OC)cc1` [Compound 2, 2-butyl-N7-isopropyl-1-(4-methoxybenzyl)-1H-imidazo[4,5-d]pyridazin-4,7-diamine], the EC50 in the experiment on TNF-α (Homo sapiens, PBMC, 24 h) was 573 nM; at human TLR8 it was greater than 20000 nM; in the experiment with IFN-α2a (Homo sapiens, PBMC, 24 h), 3 nM.
Turning to `CCCCc1nc2c(N)nnc(OCCOC)c2n1Cc1ccc(OC)cc1` [Compound 4, 2-butyl-1-(4-methoxybenzyl)-7-(2-methoxyethoxy)-1H-imidazo[4,5-d]pyridazin-4-amine], the EC50 in the experiment on TNF-α (Homo sapiens, PBMC, 24 h) was greater than 20000 nM; at human TLR8 it was greater than 20000 nM; in the experiment on IFN-α2a (Homo sapiens, PBMC, 24 h), 81 nM.
As for `CCCCc1nc2c(N)nnc(OC(C)C)c2n1Cc1ccccn1` [Compound 75, 2-butyl-7-isopropoxy-1-(pyridin-2-ylmethyl)-1H-imidazo[4,5-d]pyridazin-4-amine], the EC50 in the experiment on TNF-α (Homo sapiens, PBMC, 24 h) was 5120 nM; at human TLR8, greater than 20000 nM; in the experiment on IFN-α2a (Homo sapiens, PBMC, 24 h), 17 nM.
The like results for `CCCCc1nc2c(N)nnc(OC(C)C)c2n1Cc1ccc(OC)cc1` [Compound 1, 2-butyl-7-isopropoxy-1-(4-methoxybenzyl)-1H-imidazo[4,5-d]pyridazin-4-amine] were, in that order, 712 nM, greater than 20000 nM and 103 nM.
Turning to `CCCCc1nc2c(N)nnc(-c3cc[nH]c3)c2n1Cc1ccc(OC)cc1` [Compound 14, 2-butyl-1-(4-methoxybenzyl)-7-(1H-pyrrol-3-yl)-1H-imidazo[4,5-d]pyridazin-4-amine], the EC50 was 708 nM in the experiment with TNF-α (Homo sapiens, PBMC, 24 h); greater than 20000 nM on human TLR8; 18 nM in the experiment on IFN-α2a (Homo sapiens, PBMC, 24 h).
Take `CCCCc1nc2c(N)nnc(OC(C)C)c2n1Cc1ccc(CN)cc1` [Compound 21, 1-(4-(aminomethyl)benzyl)-2-butyl-7-isopropoxy-1H-imidazo[4,5-d]pyridazin-4-amine]: the EC50 stood at 284 nM with TNF-α (24 h), 1370 nM at human TLR8 and 0.4 nM in the experiment on IFN-α2a (24 h).
Take `CCCCc1nc2c(N)nnc(N3CCCC3)c2n1Cc1ccc(OC)cc1` [Compound 10, 2-butyl-1-(4-methoxybenzyl)-7-(pyrrolidin-1-yl)-1H-imidazo[4,5-d]pyridazin-4-amine]: the EC50 in the experiment with TNF-α (Homo sapiens, PBMC, 24 h) is 453 nM; at human TLR8, greater than 20000 nM; in the experiment on IFN-α2a (Homo sapiens, PBMC, 24 h), 14 nM.
`CCCCc1nc2c(N)nnc(N(C)C)c2n1C` [Compound 41, 2-butyl-N7,N7,1-trimethyl-1H-imidazo[4,5-d]pyridazine-4,7-diamine]: the EC50 with TNF-α (Homo sapiens, PBMC, 24 h) amounted to 5200 nM; on human TLR8, 7190 nM; in the experiment with IFN-α2a (Homo sapiens, PBMC, 24 h) it was 1220 nM.
